Data published in PubChem BioAssay AID1919004 (Molecular Pharmacology Branch, DTP, NCI, 2023).

System: 883617-216-R-J1-PDC complex spheroids, growth, % test/control
Experiment: Anticancer human tumor 883617-216-R-J1-PDC patient-derived bladder carcinoma cell line growth inhibition [AhR]
Details: for IC50: curve of first compound; for viability, T/C: stronger effect = lower value
Procedure, shortened: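 Spheroids combined tumor cells with HUVEC endothelial cells and human MSCs as stroma. AhR antagonists were paired with standard or investigational drugs, each dosed in half-log steps down from near clinical Cmax, or from 10 microM where Cmax was unknown.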

[1] = second compound 0.1 µM, first compound 0.0316 µM
[2] = second compound 0.1 µM, first compound 0.1 µM
[3] = second compound 0.1 µM, first compound 0.316 µM
[4] = second compound 0.1 µM, first compound 1 µM
[5] = second compound 0.316 µM, first compound 0.0316 µM
[6] = second compound 0.316 µM, first compound 0.1 µM
[7] = second compound 0.316 µM, first compound 0.316 µM
[8] = second compound 0.316 µM, first compound 1 µM
[9] = second compound 1 µM, first compound 0.0316 µM
[10] = second compound 1 µM, first compound 0.1 µM
[11] = second compound 1 µM, first compound 0.316 µM
[12] = second compound 1 µM, first compound 1 µM
[13] = second compound 3.16 µM, first compound 0.0316 µM
[14] = second compound 3.16 µM, first compound 0.1 µM
[15] = second compound 3.16 µM, first compound 0.316 µM
[16] = second compound 3.16 µM, first compound 1 µM
[17] = second compound 10 µM, first compound 0.0316 µM
[18] = second compound 10 µM, first compound 0.1 µM
[19] = second compound 10 µM, first compound 0.316 µM
[20] = second compound 10 µM, first compound 1 µM
[21] = second compound 0.1 µM, first compound 3.16 µM
[22] = second compound 0.1 µM, first compound 10 µM
[23] = second compound 0.316 µM, first compound 3.16 µM
[24] = second compound 0.316 µM, first compound 10 µM
[25] = second compound 1 µM, first compound 3.16 µM
[26] = second compound 1 µM, first compound 10 µM
[27] = second compound 3.16 µM, first compound 3.16 µM
[28] = second compound 3.16 µM, first compound 10 µM
[29] = second compound 10 µM, first compound 3.16 µM
[30] = second compound 10 µM, first compound 10 µM
[31] = second compound 0.1 µM, first compound 0.00949 µM
[32] = second compound 0.1 µM, first compound 0.03 µM
[33] = second compound 0.1 µM, first compound 0.0949 µM
[34] = second compound 0.1 µM, first compound 0.3 µM
[35] = second compound 0.316 µM, first compound 0.00949 µM
[36] = second compound 0.316 µM, first compound 0.03 µM
[37] = second compound 0.316 µM, first compound 0.0949 µM
[38] = second compound 0.316 µM, first compound 0.3 µM
[39] = second compound 1 µM, first compound 0.00949 µM
[40] = second compound 1 µM, first compound 0.03 µM
[41] = second compound 1 µM, first compound 0.0949 µM
[42] = second compound 1 µM, first compound 0.3 µM
[43] = second compound 3.16 µM, first compound 0.00949 µM
[44] = second compound 3.16 µM, first compound 0.03 µM
[45] = second compound 3.16 µM, first compound 0.0949 µM
[46] = second compound 3.16 µM, first compound 0.3 µM
[47] = second compound 10 µM, first compound 0.00949 µM
[48] = second compound 10 µM, first compound 0.03 µM
[49] = second compound 10 µM, first compound 0.0949 µM
[50] = second compound 10 µM, first compound 0.3 µM
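Note: exposure lasted 7 days after dosing on day 3 of spheroid growth.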

Compound: CC1COCCN1c1cc(-c2ccnn2C)c2ccnc(-c3ccn[nH]3)c2n1 (stereo not given) + Cc1cncc(-c2nc(NCCc3c[nH]c4ccccc34)c3ncn(C(C)C)c3n2)c1
- IC50 (second compound 0.1 µM): > 1000 nM
- IC50 (second compound 0.316 µM): > 1000 nM
- IC50 (second compound 1 µM): > 1000 nM
- IC50 (second compound 3.16 µM): > 1000 nM
- IC50 (second compound 10 µM): < 3.16 nM
- viability, T/C (second compound 0.1 µM, first compound 0.00316 µM): 94.9%
- viability, T/C (second compound 0.1 µM, first compound 0.01 µM): 92.8%
- viability, T/C [1]: 83.7%
- viability, T/C [2]: 76.5%
- viability, T/C [3]: 61.5%
- viability, T/C [4]: 53.9%
- viability, T/C (second compound 0.316 µM, first compound 0.00316 µM): 101%
- viability, T/C (second compound 0.316 µM, first compound 0.01 µM): 103%
- viability, T/C [5]: 98.5%
- viability, T/C [6]: 77.3%
- viability, T/C [7]: 60.2%
- viability, T/C [8]: 54.5%
- viability, T/C (second compound 1 µM, first compound 0.00316 µM): 96.1%
- viability, T/C (second compound 1 µM, first compound 0.01 µM): 107%
- viability, T/C [9]: 95.9%
- viability, T/C [10]: 76%
- viability, T/C [11]: 70.3%
- viability, T/C [12]: 60.5%
- viability, T/C (second compound 3.16 µM, first compound 0.00316 µM): 115%
- viability, T/C (second compound 3.16 µM, first compound 0.01 µM): 113%
- viability, T/C [13]: 117%
- viability, T/C [14]: 87.6%
- viability, T/C [15]: 72.7%
- viability, T/C [16]: 55.9%
- viability, T/C (second compound 10 µM, first compound 0.00316 µM): 45.3%
- viability, T/C (second compound 10 µM, first compound 0.01 µM): 50.8%
- viability, T/C [17]: 51.5%
- viability, T/C [18]: 39.8%
- viability, T/C [19]: 30.9%
- viability, T/C [20]: 27.4%

Compound: CC1COCCN1c1cc(C2(S(C)(=N)=O)CC2)nc(-c2ccnc3[nH]ccc23)n1 (stereo not given) + Cc1cncc(-c2nc(NCCc3c[nH]c4ccccc34)c3ncn(C(C)C)c3n2)c1
- IC50 (second compound 0.1 µM): > 10000 nM
- IC50 (second compound 0.316 µM): > 10000 nM
- IC50 (second compound 1 µM): > 10000 nM
- IC50 (second compound 3.16 µM): > 10000 nM
- IC50 (second compound 10 µM): 1190 nM
- viability, T/C [1]: 88.1%
- viability, T/C [2]: 90.5%
- viability, T/C [3]: 84.3%
- viability, T/C [4]: 84.8%
- viability, T/C [21]: 78.3%
- viability, T/C [22]: 58.2%
- viability, T/C [5]: 92.4%
- viability, T/C [6]: 95.6%
- viability, T/C [7]: 92.3%
- viability, T/C [8]: 82.1%
- viability, T/C [23]: 69.3%
- viability, T/C [24]: 54.3%
- viability, T/C [9]: 95.8%
- viability, T/C [10]: 100%
- viability, T/C [11]: 100%
- viability, T/C [12]: 94.9%
- viability, T/C [25]: 81.7%
- viability, T/C [26]: 62.9%
- viability, T/C [13]: 103%
- viability, T/C [14]: 113%
- viability, T/C [15]: 100%
- viability, T/C [16]: 94.2%
- viability, T/C [27]: 85%
- viability, T/C [28]: 54.8%
- viability, T/C [17]: 57%
- viability, T/C [18]: 50.1%
- viability, T/C [19]: 59.6%
- viability, T/C [20]: 50.6%
- viability, T/C [29]: 42.7%
- viability, T/C [30]: 29.8%

Compound: COc1ccc([C@@H](O)c2cc(-c3ncnc4cc(N5CCOCC5)ccc34)c(F)cc2Cl)nn1 + Cc1cncc(-c2nc(NCCc3c[nH]c4ccccc34)c3ncn(C(C)C)c3n2)c1
- IC50 (second compound 0.1 µM): 2650 nM
- IC50 (second compound 0.316 µM): 2400 nM
- IC50 (second compound 1 µM): 4070 nM
- IC50 (second compound 3.16 µM): 3530 nM
- IC50 (second compound 10 µM): < 31.6 nM
- viability, T/C [1]: 89.8%
- viability, T/C [2]: 82.6%
- viability, T/C [3]: 78.2%
- viability, T/C [4]: 67.5%
- viability, T/C [21]: 45.5%
- viability, T/C [22]: 34.1%
- viability, T/C [5]: 93.6%
- viability, T/C [6]: 103%
- viability, T/C [7]: 87.9%
- viability, T/C [8]: 67.1%
- viability, T/C [23]: 45.6%
- viability, T/C [24]: 35.3%
- viability, T/C [9]: 100%
- viability, T/C [10]: 95.4%
- viability, T/C [11]: 85.9%
- viability, T/C [12]: 76.7%
- viability, T/C [25]: 50.7%
- viability, T/C [26]: 39.3%
- viability, T/C [13]: 103%
- viability, T/C [14]: 102%
- viability, T/C [15]: 94.9%
- viability, T/C [16]: 79.9%
- viability, T/C [27]: 51.4%
- viability, T/C [28]: 33.3%
- viability, T/C [17]: 39.6%
- viability, T/C [18]: 39.3%
- viability, T/C [19]: 38.9%
- viability, T/C [20]: 30.4%
- viability, T/C [29]: 19.2%
- viability, T/C [30]: 10.9%

Compound: Nc1ncn(C2CC(O)C(CO)S2)c(=O)n1 (stereo not given) + Cc1cncc(-c2nc(NCCc3c[nH]c4ccccc34)c3ncn(C(C)C)c3n2)c1
- IC50 (second compound 0.1 µM): > 300 nM
- IC50 (second compound 0.316 µM): > 300 nM
- IC50 (second compound 1 µM): > 300 nM
- IC50 (second compound 3.16 µM): > 300 nM
- IC50 (second compound 10 µM): > 300 nM
- viability, T/C (second compound 0.1 µM, first compound 0.000949 µM): 93.3%
- viability, T/C (second compound 0.1 µM, first compound 0.003 µM): 88.9%
- viability, T/C [31]: 94.6%
- viability, T/C [32]: 89.9%
- viability, T/C [33]: 87.3%
- viability, T/C [34]: 81.9%
- viability, T/C (second compound 0.316 µM, first compound 0.000949 µM): 95%
- viability, T/C (second compound 0.316 µM, first compound 0.003 µM): 104%
- viability, T/C [35]: 103%
- viability, T/C [36]: 90.7%
- viability, T/C [37]: 91.7%
- viability, T/C [38]: 81.6%
- viability, T/C (second compound 1 µM, first compound 0.000949 µM): 105%
- viability, T/C (second compound 1 µM, first compound 0.003 µM): 119%
- viability, T/C [39]: 106%
- viability, T/C [40]: 107%
- viability, T/C [41]: 92.4%
- viability, T/C [42]: 94.8%
- viability, T/C (second compound 3.16 µM, first compound 0.000949 µM): 82.8%
- viability, T/C (second compound 3.16 µM, first compound 0.003 µM): 82.6%
- viability, T/C [43]: 82.4%
- viability, T/C [44]: 88.2%
- viability, T/C [45]: 76.7%
- viability, T/C [46]: 83.1%
- viability, T/C (second compound 10 µM, first compound 0.000949 µM): 54.5%
- viability, T/C (second compound 10 µM, first compound 0.003 µM): 62.4%
- viability, T/C [47]: 59%
- viability, T/C [48]: 57.3%
- viability, T/C [49]: 46.4%
- viability, T/C [50]: 61.5%

Compound: O=C(C=Cn1cnc(-c2cc(C(F)(F)F)cc(C(F)(F)F)c2)n1)NNc1cnccn1 + Cc1cncc(-c2nc(NCCc3c[nH]c4ccccc34)c3ncn(C(C)C)c3n2)c1
- IC50 (second compound 0.1 µM): 900 nM
- IC50 (second compound 0.316 µM): 1380 nM
- IC50 (second compound 1 µM): 1760 nM
- IC50 (second compound 3.16 µM): 1530 nM
- IC50 (second compound 10 µM): < 9.49 nM
- viability, T/C [31]: 81.5%
- viability, T/C [32]: 74.9%
- viability, T/C [33]: 63.7%
- viability, T/C [34]: 58.1%
- viability, T/C (second compound 0.1 µM, first compound 0.949 µM): 50.1%
- viability, T/C (second compound 0.1 µM, first compound 3 µM): 42.5%
- viability, T/C [35]: 88.3%
- viability, T/C [36]: 78.4%
- viability, T/C [37]: 72.3%
- viability, T/C [38]: 58.1%
- viability, T/C (second compound 0.316 µM, first compound 0.949 µM): 57.1%
- viability, T/C (second compound 0.316 µM, first compound 3 µM): 42.4%
- viability, T/C [39]: 83%
- viability, T/C [40]: 79.1%
- viability, T/C [41]: 69.5%
- viability, T/C [42]: 61.4%
- viability, T/C (second compound 1 µM, first compound 0.949 µM): 62%
- viability, T/C (second compound 1 µM, first compound 3 µM): 42.7%
- viability, T/C [43]: 93.6%
- viability, T/C [44]: 88.2%
- viability, T/C [45]: 80%
- viability, T/C [46]: 67.5%
- viability, T/C (second compound 3.16 µM, first compound 0.949 µM): 52.9%
- viability, T/C (second compound 3.16 µM, first compound 3 µM): 45.2%
- viability, T/C [47]: 49.5%
- viability, T/C [48]: 40.5%
- viability, T/C [49]: 32.4%
- viability, T/C [50]: 29.7%
- viability, T/C (second compound 10 µM, first compound 0.949 µM): 42.5%
- viability, T/C (second compound 10 µM, first compound 3 µM): 44.2%
